US10343903B2, “Cationic polymer coated mesoporous silica nanoparticles and uses thereof” (The Regents of the University of California, priority 2010, dated 2019)

Experiments:
[1] = cited from earlier work
KB-31 tumor xenograft [2] = assay: Tumor growth inhibition by doxorubicin-loaded NP3; format: in vivo, nude mice; details: 4 mg/kg doxorubicin i.v. weekly for 3 weeks, tumor weight at sacrifice
Protocol: Athymic BALB/c nu/nu female mice (6 weeks) were purchased from the Charles River Laboratory, and maintained under pathogen-free conditions. All animal experiments were performed using protocols approved by the UCLA Animal Research Committee. The tumor cell suspension (0.1 ml, 5×10^6 cells/mL) was injected subcutaneously into the mice. To perform imaging, the tumor-bearing animals were used 2.5 weeks after tumor implantation. In the tumor growth inhibition experiments, the nude mice were randomly divided into 4 groups and received the listed range of treatments, which commenced 1 week after tumor implantation.
Nude mouse studies to determine the effect of doxorubicin-loaded NP3 on tumor shrinkage. One week after tumor implantation, the KB-31 tumor-bearing mice were randomly divided into four groups of five animals each. These groups were used for comparing the effects of saline, empty nanoparticles, free doxorubicin, and doxorubicin-loaded NP3, respectively. The latter group received intravenous administration of 120 mg/kg (˜2.4 mg per animal) NP3, which is equivalent to a doxorubicin dose of 4 mg/kg (˜0.08 mg per animal), weekly for 3 weeks. […] The body weight and tumor size were accurately recorded twice per week. Tumor weight was calculated according to the formula: Tumor weight (mg)=(length in mm)× (width in mm)^2/2 (Meng et al., ACS Nano, vol. 4, pp. 2773-2783, 2010).

[3] = Body weight and major organ histology (Example 8); format: in vivo, nude mice; details: weekly i.v. for 3 weeks
Protocol: (§1) Nude mouse studies to determine the effect of doxorubicin-loaded NP3 on tumor shrinkage. One week after tumor implantation, the KB-31 tumor-bearing mice were randomly divided into four groups of five animals each. These groups were used for comparing the effects of saline, empty nanoparticles, free doxorubicin, and doxorubicin-loaded NP3, respectively. The latter group received intravenous administration of 120 mg/kg (˜2.4 mg per animal) NP3, which is equivalent to a doxorubicin dose of 4 mg/kg (˜0.08 mg per animal), weekly for 3 weeks. The free doxorubicin group received the same drug dose weekly for 3 weeks, while the group receiving empty NP3 was treated with 120 mg/kg on a weekly basis. The fourth group was treated with saline as control. The body weight and tumor size were accurately recorded twice per week. Tumor weight was calculated according to the formula: Tumor weight (mg)=(length in mm)× (width in mm)^2/2 (Meng et al., ACS Nano, vol. 4, pp. 2773-2783, 2010).
Appropriate size sections of the tumor, liver, kidney, spleen, lung, heart, and brain were fixed in 10% formalin and then embedded into paraffin. Tissue sections of 4 μm thickness were mounted on glass slides by the UCLA Division of Laboratory Animal Medicine (DLAM) diagnostic laboratory services. The sections were stained with hematoxylin-eosin (H&E) and examined by light microscopy. The slides were read by an experienced veterinary pathologist.

KB-31 cells = assay: MTS cytotoxicity of free Dox, KB-31; format: cell-based; details: KB-31, free Dox, 72 hrs
Protocol: (§2) KB-31 and KB-V1 cells were plated at 1×10^4 cells per well in 96 well plate. The cells were treated with free Dox in solution in doses ranging from 0.05-3.2 μg/ml (KB-31) and 0.1-64 μg/ml (KB-V1) for 72 hrs. The cell viability was determined by the MTS assay. The treated cells were incubated with MTS working solution for 2-3 hrs before measurement. The mean absorbance of non-exposed cells served as the reference value for calculating 100% cellular viability. To view Pgp expression, the cells were washed in PBS and the pellets lysed in a buffer containing Triton X-100 and protease inhibitors after centrifugation. The protein content of the supernatants was determined by the Bradford method. 100 μg total protein was electrophoresed by 10% SOS-PAGE and transferred to a PVDF membrane. After blocking, the membranes were incubated with 1:1000 dilution of primary monoclonal antibody to MDR1 (anti-Pgp C219, Abeam). The membranes were overlayed with goat anti-mouse secondary antibody (1:1000 dilution) before the addition of the HRP-conjugated streptavidin-biotin complex. The proteins were detected using ECL reagent according to the manufacturer's instructions.

[4] = Blood biochemistry to assess possible toxicity (Example 8); format: in vivo; details: serum, tumor-bearing nude mice, weekly i.v. for 3 weeks, day 21
Protocol: as §1
Following the animal experiments described above, the mice were sacrificed on 21st day and serum collected by centrifuging the whole blood at 5,000 rpm for 15 min. The biochemical parameters, including cholesterol (CHOL), triglycerides (TRG), alanine aminotransferase (ALT), aspartate aminotransferase (AST), total bilirubin (TBILI), glucose (GLU), inorganic phosphorus (PHOS), total protein (TPR), calcium (CAL), blood urea nitrogen (BUN), creatinine (CRE), and albumin (ALB) were assayed by UCLA Division of Laboratory Animal Medicine (DLAM) diagnostic laboratory services.

KB-V1 cells [5] = assay: MTS cytotoxicity of free Dox, KB-V1; format: cell-based; details: 72 hrs
Protocol: as §2

KB-31 tumor xenograft [6] = assay: TUNEL staining of the tumor tissue; format: in vivo, nude mice; details: 4 mg/kg doxorubicin i.v. weekly for 3 weeks
Protocol: A section of the tumor from each animal was used for TUNEL staining. The slides containing the tumor section were washed, fixed, and permeabilized before performance of TUNEL staining according to the manufacturer's instructions (Invitrogen, Carlsbad, Calif.). Nuclei were stained by Hoechst 33342 dye. The number of TUNEL positive cells (green staining) was assessed under a fluorescent microscope (200×). The same sections were also used for recording of the red fluorescent images of the doxorubicin that was present in the particles or the tissues. At least three fields were counted by the same investigator to calculate the percentage of TUNEL positive cells.

KB-V1 cells [7] = assay: Cytotoxicity of Dox formulations in KB-V1 cells (MTS, 72 hrs); format: cell-based; details: KB-V1, Tariquidar 50 nM
Protocol: To measure cytotoxicity of the different Dox formulations, KB-V1 cells were treated with free Dox, Dox-MSNP, PEI-Dox-MSNP and siRNA-PEI-Dox-MSNP, respectively. For the latter two particle types, incubation time was for 16 hrs before replenishment of the old medium with fresh complete DMEM and performance of a MTS assay at 72 hrs. Based on the absorption readout at 490 nm, the IC50 of free and Dox-loaded MSNP were calculated. The induction of apoptosis at 72 hours was assessed through the use of Annexin V-SYTOX Blue. Briefly, 5×10^5 cells were harvested and stained by FITC-Annexin V-SYTOX Blue working solution (Annexin V, Trevigen; SYTOX Blue, Invitrogen) at room temperature for 15 min. The cells were washed in binding buffer before performance of flow cytometry (Becton Dickinson, Mountain View, Calif.). Date analysis was performed by BD CellQuest. To confirm the flow data in which there may be a minor overlap of Dox with FITC-Annexin V, a TUNEL detection kit was used according to the manufacturer's instructions to confirm the induction of apoptosis. Briefly, 72 hrs following treatment with free Dox or Dox loaded particles, cells were washed, fixed, and permeabilized before TUNEL staining. The number of TUNEL-positive cells was assessed under a fluorescent microscope (200×). At least 3 fields were counted by the same investigator to calculate the percentage of TUNEL positive cells.

In the case of CCOc1ccc(-c2nc3ccc(-c4nc5ccc(N6CCN(C)CC6)cc5[nH]4)cc3[nH]2)cc1 [Hoechst 33342], the pKa [1] is given as 11.9.
In the case of COc1cccc2c1C(=O)c1c(O)c3c(c(O)c1C2=O)C[C@@](O)(C(=O)CO)C[C@@H]3O[C@H]1C[C@H](N)[C@H](O)[C@H](C)O1.Cl [Free Dox, doxorubicin hydrochloride], the tumor inhibition (KB-31 tumor xenograft [2]) is reported as 70%, the kidney histology ([3]; H&E) is reported as “glomerular swelling” and the liver histology ([3]; H&E) is reported as “prominent hepatic steatosis”. The body weight ([3]; compared to saline) was “cyclical decrease in body weight”, the “IC50 (MTS)” value (KB-31 cells) was 0.21 µg/mL and the ALB [4] was 2.4 ± 0.2 g/dL. It also gave an ALT [4] of 36.8 ± 8.0 u/L, an AST [4] of 347.8 ± 73.9 U/L and a BUN [4] of 17.3 ± 2.6 mg/dL. It also gave a CAL [4] of 9.0 ± 0.5 mg/dL, a CHOL [4] of 97.8 ± 12.8 mg/dL and a CRE [4] of 0.3 ± 0.1 mg/dL. For the same molecule, the GLU [4] was 102.5 ± 29.2 mg/dL, the PHOS [4] was 9.5 ± 0.8 mg/dL and the TBIL [4] was 0.4 ± 0.0 mg/dL. The TPR [4] was 5.0 ± 0.4 g/dL, the TRG [4] was 91.5 ± 21.2 mg/dL and the pKa [1] was 8.2. The “IC50 (MTS)” value (KB-V1 cells [5]) was 53.0 µg/mL and the “TUNEL-positive cells in tumor tissue” value (KB-31 tumor xenograft [6]) was about 13%.
With COc1cc2c(cc1OC)CN(CCc1ccc(NC(=O)c3cc(OC)c(OC)cc3NC(=O)c3cnc4ccccc4c3)cc1)CC2 [Tariquidar] the “effect of co-administration with free Dox on drug sensitivity” value (KB-V1 cells [7]) was “partially restores drug sensitivity”.
